Our source for the MIC values is ChEMBL document CHEMBL1135871, “Sordarin oxazepine derivatives as potent antifungal agents” (2002).

The term MIC denotes the smallest concentration in the dilution series that meets the test's criterion for growth inhibition. Low readings indicate a more susceptible organism, high ones a less susceptible organism.

In brackets after ≈: the same amount, converted by molar mass.

Holding throughout (assay type): functional
The subject of one experiment is Nakaseomyces glabratus. Description: Minimum inhibitory concentration required to inhibit 90-100%growth of Candida glabrata.
A further experiment deals with Candida albicans. Briefly: Minimum inhibitory concentration required to inhibit 90-100%growth of Candida albicans.
The next experiment relates to Cryptococcus neoformans. Description: Minimum inhibitory concentration required to inhibit 90-100% growth of Cryptococcus neoformans.

For `CC(C)C1=CC2CC3(C=O)[C@@H]4CC[C@@H](C)[C@H]4CC2(CO[C@@H]2O[C@H](C)[C@@H](O)[C@@H](O)[C@@H]2O)[C@]13C(=O)O`, the minimal inhibitory concentration (MIC) against Nakaseomyces glabratus, with Candida albicans and in the experiment with Cryptococcus neoformans was greater than 128 µg/mL in each case.

For `COc1ccc(CN2C[C@@H](C)O[C@@H](OCC34C[C@@H]5[C@H](C)CC[C@H]5C5(C=O)CC3C=C(C(C)C)[C@@]45C(=O)O)[C@@H](O)C2)cc1`, the MIC with Nakaseomyces glabratus was 1 µg/mL (≈ 1.72 µM); against Candida albicans, less than 0.06 µg/mL; against Cryptococcus neoformans, greater than 128 µg/mL.

`C=C(Cl)CN1C[C@@H](C)O[C@@H](OCC23C[C@@H]4[C@H](C)CC[C@H]4C4(C=O)CC2C=C(C(C)C)[C@@]34C(=O)O)[C@@H](O)C1`: the MIC in the experiment on Nakaseomyces glabratus was found to be 32 µg/mL (≈ 59.7 µM); in the experiment on Candida albicans, 0.5 µg/mL (≈ 0.933 µM); against Cryptococcus neoformans, 4 µg/mL (≈ 7.46 µM).

`C=C(Cl)CN1C[C@H](OCC23C[C@@H]4[C@H](C)CC[C@H]4C4(C=O)CC2C=C(C(C)C)[C@@]34C(=O)O)O[C@H](C)C1`: the MIC is 0.125 µg/mL (≈ 0.247 µM) in the experiment with Nakaseomyces glabratus, less than 0.06 µg/mL against Candida albicans and 16 µg/mL (≈ 31.6 µM) with Cryptococcus neoformans.

In the case of `CC(C)C1=CC2CC3(C=O)[C@@H]4CC[C@@H](C)[C@H]4CC2(CO[C@@H]2O[C@H](C)CN(Cc4ccccc4Cl)C[C@@H]2O)[C@]13C(=O)O`, the MIC against Nakaseomyces glabratus was greater than 128 µg/mL; in the experiment on Candida albicans, 2 µg/mL (≈ 3.41 µM); against Cryptococcus neoformans it was 128 µg/mL (≈ 218 µM).

Regarding `CC(C)C1=CC2CC3(C=O)[C@@H]4CC[C@@H](C)[C@H]4CC2(CO[C@@H]2O[C@H](C)CN(CCc4ncc[nH]4)C[C@@H]2O)[C@]13C(=O)O`, the minimal inhibitory concentration (MIC) with Nakaseomyces glabratus, in the experiment on Candida albicans and in the experiment with Cryptococcus neoformans was greater than 128 µg/mL in each case.

For the compound `COc1ccc(N2C[C@@H](C)O[C@@H](OCC34C[C@@H]5[C@H](C)CC[C@H]5C5(C=O)CC3C=C(C(C)C)[C@@]45C(=O)O)[C@@H](O)C2)cc1`, the MIC with Nakaseomyces glabratus is 64 µg/mL (≈ 113 µM); in the experiment with Candida albicans, 2 µg/mL (≈ 3.52 µM); against Cryptococcus neoformans, greater than 128 µg/mL.

Regarding `C=C(Cl)CN1C[C@@H](C)O[C@@H](OCC23C[C@@H]4[C@H](C)CC[C@H]4C4(C=O)CC2C=C(C(C)C)[C@@]34C(=O)O)[C@@H](OC)C1`, the values for the minimum inhibitory concentration (MIC) against Nakaseomyces glabratus, against Candida albicans and with Cryptococcus neoformans were 64 µg/mL (≈ 116 µM), 4 µg/mL (≈ 7.27 µM) and greater than 128 µg/mL, respectively.

For `Cc1coc(CN2C[C@@H](C)O[C@@H](OCC34C[C@@H]5[C@H](C)CC[C@H]5C5(C=O)CC3C=C(C(C)C)[C@@]45C(=O)O)[C@@H](O)C2)c1`, the MIC with Nakaseomyces glabratus is greater than 128 µg/mL; against Candida albicans it was 2 µg/mL (≈ 3.6 µM); with Cryptococcus neoformans it was 32 µg/mL (≈ 57.6 µM).

As for `C=C(Cl)CN1C[C@@H](C)O[C@@H](OCC23C[C@@H]4[C@H](C)CC[C@H]4C4(C=O)CC2C=C(C(C)C)[C@@]34C(=O)O)[C@H](F)C1`, the MIC with Nakaseomyces glabratus was 2 µg/mL (≈ 3.72 µM); with Candida albicans, less than 0.06 µg/mL; in the experiment with Cryptococcus neoformans it was 16 µg/mL (≈ 29.7 µM).

For `C=CCN1C[C@@H](C)O[C@@H](OCC23C[C@@H]4[C@H](C)CC[C@H]4C4(C=O)CC2C=C(C(C)C)[C@@]34C(=O)O)[C@@H](O)C1`, the figures for the MIC against Nakaseomyces glabratus, with Candida albicans and against Cryptococcus neoformans were 128 µg/mL (≈ 255 µM), 8 µg/mL (≈ 15.9 µM) and greater than 128 µg/mL, respectively.

As for `C=C(Cl)CN1C[C@@H](C)O[C@@H](OCC23C[C@@H]4[C@H](C)CC[C@H]4C4(C=O)CC2C=C(C(C)C)[C@@]34C(=O)O)[C@@H](OC(C)=O)C1`, the figures for the MIC in the experiment on Nakaseomyces glabratus, in the experiment with Candida albicans and against Cryptococcus neoformans were 16 µg/mL (≈ 27.7 µM), 8 µg/mL (≈ 13.8 µM) and greater than 128 µg/mL, respectively.

For `C=C(C)CN1C[C@@H](C)O[C@@H](OCC23C[C@@H]4[C@H](C)CC[C@H]4C4(C=O)CC2C=C(C(C)C)[C@@]34C(=O)O)[C@@H](O)C1`, the MIC is 64 µg/mL (≈ 124 µM) in the experiment on Nakaseomyces glabratus, 0.125 µg/mL (≈ 0.242 µM) against Candida albicans and greater than 64 µg/mL against Cryptococcus neoformans.

`CC(C)C1=CC2CC3(C=O)[C@@H]4CC[C@@H](C)[C@H]4CC2(CO[C@@H]2O[C@H](C)CN(CCC(F)(F)F)C[C@@H]2O)[C@]13C(=O)O`: the MIC was 32 µg/mL (≈ 57.4 µM) in the experiment on Nakaseomyces glabratus, 1 µg/mL (≈ 1.79 µM) against Candida albicans and greater than 128 µg/mL in the experiment with Cryptococcus neoformans.

For the compound `COCCN1C[C@@H](C)O[C@@H](OCC23C[C@@H]4[C@H](C)CC[C@H]4C4(C=O)CC2C=C(C(C)C)[C@@]34C(=O)O)[C@@H](O)C1`, the MIC was greater than 128 µg/mL against Nakaseomyces glabratus, 16 µg/mL (≈ 30.8 µM) against Candida albicans and greater than 128 µg/mL in the experiment on Cryptococcus neoformans.

For `CC(C)C1=CC2CC3(C=O)[C@@H]4CC[C@@H](C)[C@H]4CC2(CO[C@@H]2O[C@H](C)CN(CCC4=CCCCC4)C[C@@H]2O)[C@]13C(=O)O`, the MIC in the experiment with Nakaseomyces glabratus is greater than 128 µg/mL; in the experiment on Candida albicans, 2 µg/mL (≈ 3.51 µM); against Cryptococcus neoformans, greater than 128 µg/mL.

With `C=C(Cl)CN1CC[C@H](OCC23C[C@@H]4[C@H](C)CC[C@H]4C4(C=O)CC2C=C(C(C)C)[C@@]34C(=O)O)O[C@H](C)C1`, the MIC with Nakaseomyces glabratus was determined as 2 µg/mL (≈ 3.85 µM); with Candida albicans, 0.125 µg/mL (≈ 0.24 µM); with Cryptococcus neoformans, 1 µg/mL (≈ 1.92 µM).

On to `CO[C@H]1[C@@H](O)[C@H](O)[C@H](OC[C@@]23C[C@@H]4[C@H](C)CC[C@H]4[C@@]4(C=O)CC2C=C(C(C)C)[C@@]34C(=O)O)O[C@@H]1C` [SORDARIN], for which the MIC was greater than 128 µg/mL against Nakaseomyces glabratus, 16 µg/mL (≈ 32.5 µM) with Candida albicans and 8 µg/mL (≈ 16.2 µM) against Cryptococcus neoformans.

Turning to `CC(C)C1=CC2CC3(C=O)[C@@H]4CC[C@@H](C)[C@H]4CC2(CO[C@@H]2O[C@H](C)CN(CC4CC4)C[C@@H]2O)[C@]13C(=O)O`, the minimal inhibitory concentration (MIC) in the experiment with Nakaseomyces glabratus was greater than 128 µg/mL; against Candida albicans, greater than 16 µg/mL; in the experiment on Cryptococcus neoformans, greater than 128 µg/mL.

For `CC(C)C1=CC2CC3(C=O)[C@@H]4CC[C@@H](C)[C@H]4CC2(CO[C@@H]2O[C@H](C)CN(Cc4cccs4)C[C@@H]2O)[C@]13C(=O)O`, the MIC in the experiment with Nakaseomyces glabratus is 128 µg/mL (≈ 229 µM); with Candida albicans, 2 µg/mL (≈ 3.59 µM); against Cryptococcus neoformans, 32 µg/mL (≈ 57.4 µM).
